Data on 13 cell lines can be found in the supplement of paper PMC10307832.

Holding throughout (assay): relative viability (nuclei count vs DMSO), 5 days (fraction); higher = more cells survive
Compound in test [1]: O=C1NC(=O)[C@@H](c2cn3c4c(cccc24)CCC3)[C@@H]1c1c[nH]c2ccccc12 [Tivantinib] + CS(=O)(=O)N1CCN(Cc2cc3nc(-c4cccc5[nH]ncc45)nc(N4CCOCC4)c3s2)CC1 [Pictilisib] (partner 1 µM)
In a few lines: (§1)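 After 5 days of treatment, lung cancer cells in 1536-well plates were fixed and stained in a single step (final 0.05% Triton X-100, 1% formaldehyde, 1 ug/ml Hoechst) and their nuclei counted on 4× images. Treatment had been applied by pin tool the day after seeding as one drug alone or as a fixed anchor-drug dose with five library-drug doses (not always all listed) in √10 steps. Relative viability is the nuclei count of treated wells divided by that of vehicle wells, and values are medians of duplicate plates.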

Compound in test [2]: O=C1NC(=O)[C@@H](c2cn3c4c(cccc24)CCC3)[C@@H]1c1c[nH]c2ccccc12 [Tivantinib] + O=C(c1cc(Cc2n[nH]c(=O)c3ccccc23)ccc1F)N1CCN(C(=O)C2CC2)CC1 [Olaparib] (partner 8 µM)
Put shortly:
as §1

Compound in test [3]: CC1(COc2ccc3c(c2)ncn3-c2ccc3cccc(N4CCC(N)CC4)c3n2)COC1 [Crenolanib] + CC(=O)c1c(C)c2cnc(Nc3ccc(N4CCNCC4)cn3)nc2n(C2CCCC2)c1=O [Palbociclib] (partner 0.5 µM)
In a few lines:
as §1

Compound in test [4]: O=C1NC(=O)[C@@H](c2cn3c4c(cccc24)CCC3)[C@@H]1c1c[nH]c2ccccc12 [Tivantinib] + CC(=O)c1c(C)c2cnc(Nc3ccc(N4CCNCC4)cn3)nc2n(C2CCCC2)c1=O [Palbociclib] (partner 0.5 µM)
In a few lines: as §1

As to EBC-1, the relative viability was found to be 0.492 in test [1] (first compound 0.01 µM); 0.444 in test [1] (first compound 0.03162 µM); 0.471 in test [1] (first compound 0.1 µM); 0.345 in test [1] (first compound 0.3162 µM); 0.708 in test [2] (first compound 0.01 µM); 0.681 in test [2] (first compound 0.03162 µM). The values for the relative viability in test [2] (first compound 0.1 µM) and in test [2] (first compound 0.3162 µM) were 0.781 and 0.711, respectively.

Take EKVX: the relative viability in test [3] (first compound 0.01 µM) came out at 0.447; in test [3] (first compound 0.03162 µM), 0.338; in test [3] (first compound 0.1 µM), 0.39; in test [3] (first compound 0.3162 µM), 0.393; in test [3] (first compound 1 µM), 0.322; in test [4] (first compound 0.01 µM) it was 0.408. For the same cell line, the relative viability in test [4] (first compound 0.03162 µM) turned out to be 0.446; in test [4] (first compound 0.1 µM), 0.381; in test [4] (first compound 0.3162 µM), 0.174; in test [1] (first compound 0.01 µM), 0.449; in test [1] (first compound 0.03162 µM) it was 0.381; in test [1] (first compound 0.1 µM), 0.417. Further, the relative viability in test [1] (first compound 0.3162 µM) amounted to 0.163; in test [2] (first compound 0.01 µM) it was 0.812; in test [2] (first compound 0.03162 µM) it was 0.893; in test [2] (first compound 0.1 µM), 0.834; in test [2] (first compound 0.3162 µM) it was 0.296.

EMC-BAC-2: the relative viability in test [3] (first compound 0.01 µM) was 0.525; in test [3] (first compound 0.1 µM) it was 0.551; in test [3] (first compound 0.3162 µM), 0.486; in test [3] (first compound 1 µM) it was 0.51; in test [4] (first compound 0.01 µM) it was 0.518; in test [4] (first compound 0.03162 µM), 0.512. Besides, the relative viability is 0.503 in test [4] (first compound 0.1 µM); 0.527 in test [4] (first compound 0.3162 µM); 0.562 in test [1] (first compound 0.01 µM); 0.511 in test [1] (first compound 0.03162 µM); 0.567 in test [1] (first compound 0.1 µM); 0.527 in test [1] (first compound 0.3162 µM). The relative viability in test [2] (first compound 0.01 µM) is 0.45; in test [2] (first compound 0.03162 µM), 0.477; in test [2] (first compound 0.1 µM) it was 0.485; in test [2] (first compound 0.3162 µM), 0.582.

Regarding EPLC-272H, the relative viability in test [3] (first compound 0.01 µM) was determined as 0.336; in test [3] (first compound 0.03162 µM), 0.299; in test [3] (first compound 0.1 µM), 0.305; in test [3] (first compound 0.3162 µM) it was 0.339; in test [3] (first compound 1 µM), 0.313; in test [4] (first compound 0.01 µM), 0.298. For the same cell line, the relative viability was 0.323 in test [4] (first compound 0.03162 µM); 0.308 in test [4] (first compound 0.1 µM); 0.273 in test [4] (first compound 0.3162 µM); 0.346 in test [1] (first compound 0.01 µM); 0.3 in test [1] (first compound 0.03162 µM); 0.357 in test [1] (first compound 0.1 µM). Moreover, the relative viability came to 0.278 in test [1] (first compound 0.3162 µM); 0.97 in test [2] (first compound 0.01 µM); 0.698 in test [2] (first compound 0.03162 µM); 0.657 in test [2] (first compound 0.1 µM); 0.257 in test [2] (first compound 0.3162 µM).

For the cell line IA-LM, the relative viability in test [1] (first compound 0.01 µM) was 0.401; in test [1] (first compound 0.03162 µM) it was 0.334; in test [1] (first compound 0.1 µM), 0.343; in test [1] (first compound 0.3162 µM), 0.218; in test [2] (first compound 0.01 µM), 0.907; in test [2] (first compound 0.1 µM), 0.789. The relative viability in test [2] (first compound 0.3162 µM) worked out at 0.809.

NCI-H522: the relative viability was found to be 1.15 in test [3] (first compound 0.01 µM); 1.06 in test [3] (first compound 0.03162 µM); 0.963 in test [3] (first compound 0.1 µM); 0.881 in test [3] (first compound 0.3162 µM); 0.971 in test [3] (first compound 1 µM); 1.06 in test [4] (first compound 0.01 µM). Further, the relative viability in test [4] (first compound 0.03162 µM) stood at 0.737; in test [4] (first compound 0.1 µM), 1.03; in test [4] (first compound 0.3162 µM) it was 0.812; in test [2] (first compound 0.01 µM), 0.639; in test [2] (first compound 0.03162 µM) it was 0.579; in test [2] (first compound 0.1 µM), 0.698. Besides, the relative viability in test [2] (first compound 0.3162 µM) is 0.517.

As to NCI-H596, the relative viability in test [1] (first compound 0.01 µM) came out at 0.427; in test [1] (first compound 0.03162 µM), 0.39; in test [1] (first compound 0.1 µM) it was 0.379; in test [1] (first compound 0.3162 µM) it was 0.334; in test [2] (first compound 0.01 µM) it was 0.734; in test [2] (first compound 0.03162 µM) it was 0.661. Further, the figures for the relative viability in test [2] (first compound 0.1 µM) and in test [2] (first compound 0.3162 µM) were 0.655 and 0.6, respectively.

In the case of NCI-H1299, the relative viability in test [1] (first compound 0.01 µM) was 0.9; in test [1] (first compound 0.03162 µM), 0.857; in test [1] (first compound 0.1 µM), 0.695; in test [1] (first compound 0.3162 µM) it was 0.807; in test [2] (first compound 0.01 µM), 0.941; in test [2] (first compound 0.03162 µM), 0.933. For the same cell line, the relative viability is 1.01 in test [2] (first compound 0.1 µM) and 0.93 in test [2] (first compound 0.3162 µM).

As for NCI-H1563, the relative viability is 0.608 in test [1] (first compound 0.01 µM), 0.6 in test [1] (first compound 0.03162 µM), 0.651 in test [1] (first compound 0.1 µM) and 0.674 in test [1] (first compound 0.3162 µM).

NCI-H1648: the relative viability came to 0.254 in test [3] (first compound 0.01 µM); 0.262 in test [3] (first compound 0.1 µM); 0.29 in test [3] (first compound 0.3162 µM); 0.267 in test [3] (first compound 1 µM); 0.235 in test [4] (first compound 0.03162 µM); 0.21 in test [4] (first compound 0.1 µM). Further, the relative viability in test [4] (first compound 0.3162 µM) is 0.267; in test [2] (first compound 0.03162 µM), 0.889; in test [2] (first compound 0.1 µM), 0.611; in test [2] (first compound 0.3162 µM) it was 0.528.

With NCI-H1703, the relative viability stood at 0.215 in test [1] (first compound 0.01 µM); 0.24 in test [1] (first compound 0.03162 µM); 0.236 in test [1] (first compound 0.1 µM); 0.228 in test [1] (first compound 0.3162 µM); 0.524 in test [2] (first compound 0.01 µM); 0.444 in test [2] (first compound 0.03162 µM). Further, the relative viability in test [2] (first compound 0.1 µM) amounted to 0.527; in test [2] (first compound 0.3162 µM), 0.309.

As for NCI-H2342, the relative viability is 0.521 in test [3] (first compound 0.01 µM); 0.545 in test [3] (first compound 0.03162 µM); 0.574 in test [3] (first compound 0.1 µM); 0.533 in test [3] (first compound 0.3162 µM); 0.598 in test [3] (first compound 1 µM); 0.498 in test [4] (first compound 0.01 µM). Further, the relative viability in test [4] (first compound 0.03162 µM) was found to be 0.49; in test [4] (first compound 0.1 µM) it was 0.719; in test [4] (first compound 0.3162 µM), 0.438; in test [2] (first compound 0.01 µM), 0.513; in test [2] (first compound 0.03162 µM) it was 0.423; in test [2] (first compound 0.1 µM), 0.392. Besides, the relative viability in test [2] (first compound 0.3162 µM) was 0.282.

As for SW 900, the relative viability is 0.591 in test [3] (first compound 0.01 µM); 0.449 in test [3] (first compound 0.1 µM); 0.523 in test [3] (first compound 0.3162 µM); 0.554 in test [3] (first compound 1 µM); 0.581 in test [4] (first compound 0.01 µM); 0.535 in test [4] (first compound 0.03162 µM). Moreover, the relative viability in test [4] (first compound 0.1 µM) is 0.588; in test [4] (first compound 0.3162 µM), 0.492; in test [2] (first compound 0.01 µM), 0.939; in test [2] (first compound 0.03162 µM), 1.03; in test [2] (first compound 0.1 µM), 0.809; in test [2] (first compound 0.3162 µM), 0.742.
